Test results published in patent US4725676A, “5-(3,5-disubstituted phenylazo)-2-hydroxybenzene-acetic acids and salts and lactones thereof having a potentially inhibitory effect on 15-hydroxy-prostaglandin dehydrogenase” (Pharmacia AB, priority 1984, dated 1988).

Experiments:
Assay type in all cases: biochemical
cyclooxygenase = assay: Inhibition of cyclooxygenase; settings: at concentrations of from 10 to 1,000 nM
PGDH from rat colon = molecular target: T1, PGDH from rat colon (Rattus norvegicus, UniProt O08699); assay: Inhibition of PGDH from rat colon; settings: similarly tested, read-out: 50% PGDH inhibition at
T1 construct: PGDH from rat colon; from tissue; host or cells: rat colon
T1 sequence (O08699 1-266): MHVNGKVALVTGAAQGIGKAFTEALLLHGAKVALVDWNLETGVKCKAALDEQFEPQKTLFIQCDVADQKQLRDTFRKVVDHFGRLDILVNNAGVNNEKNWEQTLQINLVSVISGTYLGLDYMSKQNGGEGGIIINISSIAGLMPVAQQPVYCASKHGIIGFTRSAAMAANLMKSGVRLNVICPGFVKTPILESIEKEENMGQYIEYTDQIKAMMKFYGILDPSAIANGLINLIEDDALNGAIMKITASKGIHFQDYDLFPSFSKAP
Experimental: (§1) Radioactively labelled prostaglandin PGF 2 was incubated with the enzyme as according to Berry, C. N. et al., Biochem. Pharmacol. 1983, Vol. 32, p. 2863.
(§2) The compound of Example 2 was added in various concentrations, and the inhibition was measured as stated above.
When similarly tested against PGDH from rat colon the compound gave 50% PGDH inhibition at 56 nM. […] It should be noted that (V) is the strongest inhibitor of this type known in the literature.

human PGDH = molecular target: T2, human PGDH (Homo sapiens, UniProt P15428); assay: Inhibitory effect on human PGDH isolated from placenta; settings: radioactively labelled prostaglandin PGF 2, read-out: 50% PGDH inhibition at a concentration of
T2 construct: human PGDH isolated from placenta; from tissue; host or cells: human placenta
T2 sequence (P15428 1-266): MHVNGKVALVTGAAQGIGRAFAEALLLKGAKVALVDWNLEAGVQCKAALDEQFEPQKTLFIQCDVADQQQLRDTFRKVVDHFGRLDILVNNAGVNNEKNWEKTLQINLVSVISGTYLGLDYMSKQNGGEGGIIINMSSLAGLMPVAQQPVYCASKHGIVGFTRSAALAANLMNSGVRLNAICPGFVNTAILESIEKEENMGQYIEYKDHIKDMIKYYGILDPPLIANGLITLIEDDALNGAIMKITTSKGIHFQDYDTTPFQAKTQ
Experimental: The compound of Example 2 was studied in respect of its inhibitory effect on human PGDH isolated from placenta.
as §1, §2

| inhibition of cyclooxygenase detected (cyclooxygenase) | IC50 (PGDH from rat colon) | IC50 (human PGDH) | SMILES |
| --- | --- | --- | --- |
| No inhibition whatever | 56 nM | 28 nM | COC(=O)c1cc(N=Nc2ccc(O)c(CC(=O)O)c2)cc(C(=O)OC)c1 [Example 2, 5-(3,5-bis-(methoxycarbonyl)-phenylazo)-2-hydroxy-phenylacetic acid] |
|  |  | 290 nM | CCOC(=O)c1ccc(N=Nc2ccc(O)c(CC(=O)O)c2)cc1 [V, reference compound] |
